pIC50: −log10 of the molar value. Values joined by “and” are separate entries in the source; they are usually repeats but may differ in a detail not shown here. Identical values can stand only once.
target: T1, recombinant human GST-SYK (Homo sapiens, UniProt P43405); assay: Homogeneous Time-Resolved Fluorescence (HTRF) assay for the recombinant human Syk enzyme; type: biochemical; conditions: GST-hSYK 5 pM, ATP 25 μM, IC50 rated in classes, read-out: rhSYK Activity
T1 construct: purchased Carna Biosciences 08-176
How it was run: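 HTRF read-out, via Europium anti-phosphotyrosine antibody and SA-APC added with EDTA, measured phosphorylation of a 250 nM biotinylated substrate after 45 min at room temperature with 25 μM ATP and 5 mM magnesium. Enzyme was 5 pM GST-hSYK, preincubated 10 min with compound in Tris pH 7.5 buffer containing DTT.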

pIC50 | SMILES
6.00 to 7.00 | CCOC(=O)CCc1ccc(-c2cc(C)cc(Nc3nccc(C(F)(F)F)n3)c2)nn1 [Example 3.27, ethyl 3-[6-(3-methyl-5-{[4-(trifluoromethyl)pyrimidin-2-yl]amino}phenyl)pyridazin-3-yl]propanoate]
6.00 to 7.00 | Cc1cc(Nc2nccc(C(F)(F)F)n2)cc(-c2cccnn2)c1 [Example 3.28, N-(3-methyl-5-pyridazin-3-ylphenyl)-4-(trifluoromethyl)pyrimidin-2-amine]
6.00 to 7.00 | Cc1cc(Nc2nccc(C(F)(F)F)n2)cc(-c2ccc(N3CCOCC3)nn2)c1 [Example 3.29, N-[3-methyl-5-(6-morpholin-4-ylpyridazin-3-yl)phenyl]-4-(trifluoromethyl)pyrimidin-2-amine]
6.00 to 7.00 | Cc1cc(Nc2nccc(C(F)(F)F)n2)cc(-c2ccc(N3CCC(O)CC3)nn2)c1 [Example 3.30, 1-[6-(3-methyl-5-{[4-(trifluoromethyl)pyrimidin-2-yl]amino}phenyl)pyridazin-3-yl]piperidin-4-ol]
> 7.00 | Cc1cc(Nc2nccc(C(F)(F)F)n2)cc(-c2ccc(N3CCC(C(N)=O)CC3)nn2)c1 [Example 3.31, 1-[6-(3-methyl-5-{[4-(trifluoromethyl)pyrimidin-2-yl]amino}phenyl)pyridazin-3-yl]piperidine-4-carboxamide]
> 7.00 | Cc1cc(Nc2nccc(C(F)(F)F)n2)cc(-c2ccc(-c3cccc(C(=O)O)c3)nn2)c1 [Example 3.32, 3-[6-(3-methyl-5-{[4-(trifluoromethyl)pyrimidin-2-yl]amino}phenyl)pyridazin-3-yl]benzoic acid]
> 7.00 | Cc1cc(Nc2nccc(C(F)(F)F)n2)cc(-c2ccc(-c3ccc(C(=O)O)cc3)nn2)c1 [Example 3.33, 4-[6-(3-methyl-5-{[4-(trifluoromethyl)pyrimidin-2-yl]amino}phenyl)pyridazin-3-yl]benzoic acid]
> 7.00 | Cc1cc(Nc2nccc(C(F)(F)F)n2)cc(-c2ccc(OC(C)(C)C(=O)O)nn2)c1 [Example 3.34, 2-methyl-2-{[6-(3-methyl-5-{[4-(trifluoromethyl)pyrimidin-2-yl]amino}phenyl)pyridazin-3-yl]oxy}propanoic acid]
6.00 to 7.00 | Cc1cc(Nc2nccc(C(F)(F)F)n2)cc(-c2ccc(N(CCN(C)C)C(=O)N(C)C)nn2)c1 [Example 3.35, 1-[2-(dimethylamino)ethyl]-3,3-dimethyl-1-[6-(3-methyl-5-{[4-(trifluoromethyl)pyrimidin-2-yl]amino}phenyl)pyridazin-3-yl]urea]
6.00 to 7.00 | Cc1cc(Nc2nccc(C(F)(F)F)n2)cc(-c2ccc(C(C)(C)O)nn2)c1 [Example 3.36, 2-[6-(3-methyl-5-{[4-(trifluoromethyl)pyrimidin-2-yl]amino}phenyl)pyridazin-3-yl]propan-2-ol]
> 7.00 | Cc1cc(Nc2nccc(C(F)(F)F)n2)cc(-c2ccc(N3CCC(C(=O)O)CC3)nn2)c1 [Example 3.37, 1-[6-(3-methyl-5-{[4-(trifluoromethyl)pyrimidin-2-yl]amino}phenyl)pyridazin-3-yl]piperidine-4-carboxylic acid]
> 7.00 | Cc1cc(Nc2nccc(C(F)(F)F)n2)cc(-c2ccc(N(C)CC(=O)O)nn2)c1 [Example 3.38, N-methyl-N-[6-(3-methyl-5-{[4-(trifluoromethyl)pyrimidin-2-yl]amino}phenyl)pyridazin-3-yl]glycine]
> 7.00 | Cc1cc(Nc2nccc(C(F)(F)F)n2)cc(-c2ccc(CCC(=O)O)nn2)c1 [Example 3.39, 3-[6-(3-methyl-5-{[4-(trifluoromethyl)pyrimidin-2-yl]amino}phenyl)pyridazin-3-yl]propanoic acid]
6.00 to 7.00 | Cc1cc(Nc2nccc(C(F)(F)F)n2)cc(-c2ccnnc2)c1 [Example 3.43, N-(3-methyl-5-pyridazin-4-ylphenyl)-4-(trifluoromethyl)pyrimidin-2-amine]
6.00 to 7.00 | Cc1cc(Nc2nccc(C(F)(F)F)n2)cc(-c2ccncn2)c1 [Example 3.48, N-(3-methyl-5-pyrimidin-4-ylphenyl)-4-(trifluoromethyl)pyrimidin-2-amine]
6.00 to 7.00 | Cc1cc(Nc2nccc(C(F)(F)F)n2)cc(-c2cc(CCC(=O)O)ncn2)c1 [Example 3.50, 3-[6-(3-methyl-5-{[4-(trifluoromethyl)pyrimidin-2-yl]amino}phenyl)pyrimidin-4-yl]propanoic acid]
> 7.00 | Cc1cc(Nc2nccc(C(F)(F)F)n2)cc(-c2cnc(OC3CCC(C(=O)O)CC3)nc2)c1 (stereo not drawn) [Example 3.59, 4-{[5-(3-methyl-5-{[4-(trifluoromethyl)pyrimidin-2-yl]amino}phenyl)pyrimidin-2-yl]oxy}cyclohexanecarboxylic acid]
> 7.00 | Cc1cc(Nc2nccc(C(F)(F)F)n2)cc(-c2cnc(OC3CCC(C(=O)O)CC3)nc2)c1 (stereo not drawn) [Example 3.60, 4-{[5-(3-methyl-5-{[4-(trifluoromethyl)pyrimidin-2-yl]amino}phenyl)pyrimidin-2-yl]oxy}cyclohexanecarboxylic acid]

The next lines start with the compound.

SMILES | pIC50
CCOC(=O)CCc1ccc(-c2cccc(Nc3nccc(C(F)(F)F)n3)c2)nn1 [Example 3.24, ethyl 3-[6-(3-{[4-(trifluoromethyl)pyrimidin-2-yl]amino}phenyl)pyridazin-3-yl]propanoate] | 5.00 to 6.00
O=C(O)CCc1ccc(-c2cccc(Nc3nccc(C(F)(F)F)n3)c2)nn1 [Example 3.25, 3-[6-(3-{[4-(trifluoromethyl)pyrimidin-2-yl]amino}phenyl)pyridazin-3-yl]propanoic acid] | 6.00 to 7.00
CCOC(=O)CCc1ccc(-c2cc(C)cc(Nc3nccc(C)n3)c2)nn1 [Example 3.40, ethyl 3-(6-{3-methyl-5-[(4-methylpyrimidin-2-yl)amino]phenyl}pyridazin-3-yl)propanoate] | 6.00 to 7.00
Cc1cc(Nc2nccc(C)n2)cc(-c2ccc(CCC(=O)O)nn2)c1 [Example 3.41, 3-(6-{3-methyl-5-[(4-methylpyrimidin-2-yl)amino]phenyl}pyridazin-3-yl)propanoic acid] | 6.00 to 7.00
CCOC(=O)CCc1ccc(-c2cc(C)cc(Nc3nccc(C4CC4)n3)c2)nn1 [Example 3.42, ethyl 3-(6-{3-[(4-cyclopropylpyrimidin-2-yl)amino]-5-methylphenyl}pyridazin-3-yl)propanoate] | 6.00 to 7.00
CCOC(=O)CCc1cc(-c2cccc(Nc3nccc(C(F)(F)F)n3)c2)ncn1 [Example 3.44, ethyl 3-[6-(3-{[4-(trifluoromethyl)pyrimidin-2-yl]amino}phenyl)pyrimidin-4-yl]propanoate] | 5.00 to 6.00
O=C(O)CCc1cc(-c2cccc(Nc3nccc(C(F)(F)F)n3)c2)ncn1 [Example 3.45, 3-[6-(3-{[4-(trifluoromethyl)pyrimidin-2-yl]amino}phenyl)pyrimidin-4-yl]propanoic acid] | 6.00 to 7.00
COc1ccnc(Nc2cc(C)cc(-c3cc(CCC(=O)O)ncn3)c2)n1 [Example 3.47, 3-(6-{3-[(4-methoxypyrimidin-2-yl)amino]-5-methylphenyl}pyrimidin-4-yl)propanoic acid] | 6.00 to 7.00
CCOC(=O)CCc1cc(-c2cc(C)cc(Nc3nccc(C(F)(F)F)n3)c2)ncn1 [Example 3.49, ethyl 3-[6-(3-methyl-5-{[4-(trifluoromethyl)pyrimidin-2-yl]amino}phenyl)pyrimidin-4-yl]propanoate] | 6.00 to 7.00
CCOC(=O)CCc1cc(-c2cc(C)cc(Nc3nccc(C)n3)c2)ncn1 [Example 3.51, ethyl 3-(6-{3-methyl-5-[(4-methylpyrimidin-2-yl)amino]phenyl}pyrimidin-4-yl)propanoate] | 5.00 to 6.00
Cc1cc(Nc2nccc(C)n2)cc(-c2cc(CCC(=O)O)ncn2)c1 [Example 3.52, 3-(6-{3-methyl-5-[(4-methylpyrimidin-2-yl)amino]phenyl}pyrimidin-4-yl)propanoic acid] | 5.00 to 6.00
CCOC(=O)CCc1cc(-c2cc(C)cc(Nc3nccc(C4CC4)n3)c2)ncn1 [Example 3.53, ethyl 3-(6-{3-[(4-cyclopropylpyrimidin-2-yl)amino]-5-methylphenyl}pyrimidin-4-yl)propanoate] | 6.00 to 7.00
Cc1cc(Nc2nccc(C3CC3)n2)cc(-c2cc(CCC(=O)O)ncn2)c1 [Example 3.54, 3-(6-{3-[(4-cyclopropylpyrimidin-2-yl)amino]-5-methylphenyl}pyrimidin-4-yl)propanoic acid] | 6.00 to 7.00
Cc1cc(Nc2nccc(C)n2)cc(-c2cnc(CCC(=O)O)nc2)c1 [Example 3.55, 3-(5-{3-methyl-5-[(4-methylpyrimidin-2-yl)amino]phenyl}pyrimidin-2-yl)propanoic acid] | 6.00 to 7.00 and > 7.00
Cc1cc(Nc2nccc(C3CC3)n2)cc(-c2cnc(CCC(=O)O)nc2)c1 [Example 3.57, 3-(5-{3-[(4-cyclopropylpyrimidin-2-yl)amino]-5-methylphenyl}pyrimidin-2-yl)propanoic acid] | > 7.00
Cc1cc(Nc2nccc(C(F)(F)F)n2)cc(-c2cnc(OC3CCC(C(=O)O)CC3)nc2)c1 (stereo not drawn) [Example 3.58, 4-{[5-(3-methyl-5-{[4-(trifluoromethyl)pyrimidin-2-yl]amino}phenyl)pyrimidin-2-yl]oxy}cyclohexanecarboxylic acid] | > 7.00
Cc1cc(Nc2nccc(C)n2)cc(-c2cnc(CCC(=O)O)nc2)c1 [Example 3.61, 3-(5-{3-methyl-5-[(4-methylpyrimidin-2-yl)amino]phenyl}pyrimidin-2-yl)propanoic acid] | 6.00 to 7.00 and > 7.00
Cc1cc(Nc2nccc(C(F)(F)F)n2)cc(-c2cnc(CCC(=O)O)nc2)c1 [Example 3.62, 3-[5-(3-methyl-5-{[4-(trifluoromethyl)pyrimidin-2-yl]amino}phenyl)pyrimidin-2-yl]propanoic acid] | > 7.00

Reference: US9416111B2, “Substituted diazine and triazine spleen tyrosine kinease (Syk) inhibitors” (Merck Sharp & Dohme Corp., priority 2012, dated 2016)
